The results in this text go back to US7803829B2, “Use of a kinase inhibitor for the treatment of particular resistant tumors” (Nerviano Medical Sciences S.r.l., priority 2006, dated 2010).

Where a chain is given by its changes, count along the chain named. “Also recorded” adds a separate entry of the source.

Test [1] concerns the target T1, T315I ABL mutant kinase domain (Homo sapiens, UniProt P00519, T315I).
T1 construct: ABL kinase domain (corresponding to residues 229-512); GST (N, cleaved yes); PreScission cleavage site (N, cleaved yes); made in house; host or cells: High5 insect cells (baculovirus)
T1 sequence (P00519 229-512 T315I): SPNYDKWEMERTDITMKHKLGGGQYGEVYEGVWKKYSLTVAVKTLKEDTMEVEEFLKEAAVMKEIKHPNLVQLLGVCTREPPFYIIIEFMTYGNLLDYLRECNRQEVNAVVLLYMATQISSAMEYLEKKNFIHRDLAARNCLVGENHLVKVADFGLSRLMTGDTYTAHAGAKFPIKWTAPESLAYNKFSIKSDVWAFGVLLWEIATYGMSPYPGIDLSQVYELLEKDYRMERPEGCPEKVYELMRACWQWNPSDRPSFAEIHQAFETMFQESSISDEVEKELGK
The experiment in a line: ATP site-dependent displacement assay, indolinone probe of 3.1. The test is classed as binding. An excerpt: (§1) KD values, are the average of three independent experiments.

Test [2] deals with T1, T315I ABL mutant kinase domain. Description: ATP site-dependent displacement assay, indolinone probe of 3.2. It is filed as binding.
Excerpt: as §1

The target in test [3] is T2, Wild-type ABL 0P (unphosphorylated) kinase domain (Homo sapiens, UniProt P00519).
T2 construct: ABL kinase domain (corresponding to residues 229-512); GST (N, cleaved yes); PreScission cleavage site (N, cleaved yes); made in house; host or cells: High5 insect cells (baculovirus)
T2 sequence (P00519 229-512): T1 sequence (P00519 229-512 T315I) with I87T
The experiment in a line: ATP site-dependent displacement assay, indolinone probe of 3.1. The test is classed as binding.
Excerpt: as §1

Test [4] addresses T3, wild-type ABL kinase domain (Homo sapiens, UniProt P00519).
T3 construct: ABL kinase domain (corresponding to residues 229-512); GST (N, cleaved yes); PreScission cleavage site (N, cleaved yes); made in house; host or cells: High5 insect cells (baculovirus)
T3 sequence (P00519 229-512): T1 sequence (P00519 229-512 T315I) with I87T
The description is as above. The test is classed as binding.
Excerpt: as §1

The target in test [5] is T2, Wild-type ABL 0P (unphosphorylated) kinase domain. The experiment in a line: ATP site-dependent displacement assay, indolinone probe of 3.2. The test is classed as binding.
Excerpt: as §1

Test [6] concerns the target T3, wild-type ABL kinase domain. The test is described as above. It is filed as binding.
Excerpt: as §1

Test [7] deals with T4, BCR-ABL in K-562 leukemia cells (Homo sapiens, UniProt P00519).
T4 construct: endogenously expressing BCR-ABL cells; endogenous in cells; host or cells: K-562; the other entry of the earlier key: BCR (P11274, Breakpoint cluster region protein)
Description: Immunoblotting of K-562 leukemia cells, inhibition of BCR-ABL signaling. It is filed as cell-based. Conditions: K-562 cells treated for one hour. In general terms: In western blotting, separated proteins are transferred to a membrane and probed.

Test [8] concerns the target T5, wild-type ABL in HCT-116 transfected cells (Homo sapiens, UniProt P00519).
T5 construct: ABL cDNA (corresponding to residues 27-1130); expressed in transfected cells; host or cells: HCT-116
Description: Immunoblotting of transfected HCT-116 cells (pY412-ABL). The test is classed as cell-based. Conditions: 5 μM, HCT-116 transfected with wild-type construct, FIG. 3. The method, then: (§2) Amplification was performed using the forward oligonucleotide:
(§3) Immunoblotting was performed according to standard methods.

In test [9] the target is T6, T315I ABL mutant in HCT-116 transfected cells (Homo sapiens, UniProt P00519, T315I).
T6 construct: ABL cDNA (corresponding to residues 27-1130); expressed in transfected cells; host or cells: HCT-116
The test is described as above. It is filed as cell-based. Conditions: 5 μM, HCT-116 transfected with T315I mutant construct, FIG. 3. On the procedure:
as §2
Oligonucleotide used in the mutagenesis reaction was:
as §3

The target in test [10] is T1, T315I ABL mutant kinase domain. Description: Indolinone probe titration (fluorescence), probe of 3.1. It is filed as binding. Conditions: Table 1; 10 nM enzyme, probe 3 μM to 0. The method, then:
(§4) Data analysis was performed using the Dynafit software.

For test [11], the target named is T2, Wild-type ABL 0P (unphosphorylated) kinase domain. The description is as above. It is filed as binding. The following applies: Table 1; 10 nM enzyme, probe 3 μM to 0. The method, then: as §4
Test [12] has as its target T3, wild-type ABL kinase domain. The test is described as above. It is filed as binding. Conditions: Table 1; 10 nM enzyme, probe 3 μM to 0. On the procedure: as §4
Setting [13] is: Tables 2 and 3, probe 3.1, 3 μM highest inhibitor concentration.
[14] abbreviates: Tables 5 and 6, probe 3.2, 3 μM highest inhibitor concentration, average of three experiments.
[15] abbreviates: Table 2, probe 3.1, 3 μM highest inhibitor concentration.
The mark [16] stands for this setting: Table 5, probe 3.2, 3 μM highest inhibitor concentration, average of three experiments.

On to `CN1CCN(Cc2ccc(C(=O)Nc3n[nH]c4sc(C(=O)NC(C)(C)c5ccccc5)cc34)cc2)CC1` [Compound 10, 3-[4-(4-Methyl-piperazin-1-ylmethyl)-benzoylamino]-1H-thieno[2,3-c]pyrazole-5-carboxylic acid (1-methyl-1-phenyl-ethyl)-amide], for which the Kd – broadly, the equilibrium constant for the complex coming apart – in test [1] (setting [13]) was determined as 8.4 ± 4 nM; in test [2] (setting [14]) it was 9.3 ± 2.5 nM.
For `CC(C)(NC(=O)c1cc2c(NC(=O)c3ccc(CN4CCCCC4)cc3)n[nH]c2s1)c1cccc(F)c1` [Compound 13, 3-(4-Piperidin-1-ylmethyl-benzoylamino)-1H-thieno[2,3-c]pyrazole-5-carboxylic acid [1-(3-fluoro-phenyl)-1-methyl-ethyl]-amide], the values for the Kd in test [1] (setting [13]) and in test [2] (setting [14]) were 10 ± 4.6 nM and 6.3 ± 3.3 nM, respectively.
On to `CC(C)(NC(=O)c1cc2c(NC(=O)c3ccc(CN4CCOCC4)cc3)n[nH]c2s1)c1ccccc1F` [Compound 3, 3-(4-Morpholin-4-ylmethyl-benzoylamino)-1H-thieno[2,3-c]pyrazole-5-carboxylic acid [1-(2-fluoro-phenyl)-1-methyl-ethyl]-amide], for which the Kd in [1] (setting [13]) was 47 ± 15 nM; in test [3] (setting [15]), 330 ± 150 nM; in test [4] (setting [15]), 370 ± 160 nM; in test [2] (setting [14]), 70 ± 22 nM; in test [5] (setting [16]), 350 ± 50 nM; in test [6] (setting [16]) it was 553 ± 136 nM.
For `CC(C)(NC(=O)c1cc2c(NC(=O)c3ccc(CN4CCCCC4)cc3)n[nH]c2s1)c1ccccc1` [Compound 1, 3-(4-Piperidin-1-ylmethyl-benzoylamino)-1H-thieno[2,3-c]pyrazole-5-carboxylic acid (1-methyl-1-phenyl-ethyl)-amide], the dissociation constant Kd in test [1] (setting [13]) came to 21 ± 6 nM; in test [3] (setting [15]), 240 ± 30 nM; in test [4] (setting [15]) it was 250 ± 75 nM; in test [2] (setting [14]), 37 ± 13 nM; in [5] (setting [16]), 278 ± 122 nM; in [6] (setting [16]), 310 ± 26 nM. Also, the “effect on Src” value in test [7] was “no effect on Src”. Further, the “inhibition of ABL auto-phosphorylation of Y412” value in test [7] (FIG. 2) is “inhibit phosphorylation of Y412”. For the same compound, the “inhibition of phosphorylation of downstream mediators Stat-5 and Crkl” value in test [7] (FIG. 2) was “inhibit”. For the same compound, the “inhibitory activity on ABL (pY412-ABL immunoblot)” value in test [8] and in test [9] was “capable of inhibiting; also recorded: strong inhibitory activity” throughout.
Take `CC(C)(NC(=O)c1cc2c(NC(=O)c3ccc(CN4CCCCC4)cc3)n[nH]c2s1)c1ccccc1Cl` [Compound 9, 3-(4-Piperidin-1-ylmethyl-benzoylamino)-1H-thieno[2,3-c]pyrazole-5-carboxylic acid [1-(2-chloro-phenyl)-1-methyl-ethyl]-amide]: the Kd in test [1] (setting [13]) amounted to 14 ± 3.5 nM; in test [2] (setting [14]), 18 ± 3.4 nM.
Taken in the same sequence, the figures for `CC(C)(NC(=O)c1cc2c(NC(=O)c3ccc(CN4CCCCC4)cc3)n[nH]c2s1)c1ccc(F)cc1` [Compound 6, 3-(4-Piperidin-1-ylmethyl-benzoylamino)-1H-thieno[2,3-c]pyrazole-5-carboxylic acid [1-(4-fluoro-phenyl)-1-methyl-ethyl]-amide] were 14 ± 5 nM and 17.4 ± 6 nM.
For the compound `CC(C)(NC(=O)c1cc2c(NC(=O)c3ccc(N4CCOCC4)cc3)n[nH]c2s1)c1ccccc1` [Compound 12, 3-(4-Morpholin-4-yl-benzoylamino)-1H-thieno[2,3-c]pyrazole-5-carboxylic acid (1-methyl-1-phenyl-ethyl)-amide], the Kd was found to be 16 ± 3.7 nM in test [1] (setting [13]) and 11.7 ± 3.8 nM in test [2] (setting [14]).
For the compound `CCN(CC)CCNC(=O)c1c(C)[nH]c(/C=C2\C(=O)Nc3ccc(S(=O)(=O)Cc4ccccc4)cc32)c1C` [2,4-dimethyl-5-[2-oxo-5-phenylmethanesulfonyl-1,2-dihydro-indol-(3Z)-ylidenemethyl]-1H-pyrrole-3-carboxylic acid (2-diethylamino-ethyl)-amide], the values for the Kd in test [10], in [11] and in test [12] were 140 ± 70 nM, 50 ± 30 nM and 40 ± 20 nM, respectively.
For the compound `CN1CCN(c2ccc(C(=O)Nc3n[nH]c4sc(C(=O)NC(C)(C)c5ccccc5)cc34)cc2)CC1` [Compound 5, 3-[4-(4-Methyl-piperazin-1-yl)-benzoylamino]-1H-thieno[2,3-c]pyrazole-5-carboxylic acid (1-methyl-1-phenyl-ethyl)-amide], the Kd is 4.1 ± 2 nM in test [1] (setting [13]) and 5.3 ± 4 nM in test [2] (setting [14]).
As for `CC(C)(NC(=O)c1cc2c(NC(=O)c3ccc(CN4CCCCC4)cc3)n[nH]c2s1)c1ccccc1F` [Compound 2, 3-(4-Piperidin-1-ylmethyl-benzoylamino)-1H-thieno[2,3-c]pyrazole-5-carboxylic acid [1-(2-fluoro-phenyl)-1-methyl-ethyl]-amide], the Kd in test [1] (setting [13]) is 15 ± 4 nM; in [3] (setting [15]), 107 ± 21 nM; in [4] (setting [15]) it was 177 ± 32 nM; in [2] (setting [14]), 15 ± 4 nM; in test [5] (setting [16]) it was 107 ± 21 nM; in test [6] (setting [16]), 177 ± 32 nM.
On to `Nc1ncnc2c1ncn2[C@@H]1O[C@H](COP(=O)(O)OP(=O)(O)OP(O)(O)=S)[C@@H](O)[C@H]1O` [ATPγS, reference compound], for which the Kd was 2000 ± 210 nM in test [1] (Table 1 validation, probe 3.1 at 0.42 μM, highest conc. ATPγS 250 μM, Imatinib 10 μM, average of three experiments); 9500 ± 3400 nM in [3] (Table 1 validation, probe 3.1 at 0.15 μM, highest conc. ATPγS 250 μM, Imatinib 10 μM, average of three experiments); 9000 ± 1900 nM in [4] (Table 1 validation, probe 3.1 at 0.12 μM, highest conc. ATPγS 250 μM, Imatinib 10 μM, average of three experiments); 2610 ± 900 nM in [2] (Table 4 validation, probe 3.2 at 0.2 μM); 6600 ± 1600 nM in test [5] (Table 4 validation, probe 3.2 at 2 μM); 4800 ± 1000 nM in [6] (Table 4 validation, probe 3.2 at 3.3 μM).
Take `CN1CCN(c2ccc(C(=O)Nc3n[nH]c4sc(C(=O)NC(C)(C)c5ccccc5F)cc34)cc2)CC1` [Compound 8, 3-[4-(4-Methyl-piperazin-1-yl)-benzoylamino)-1H-thieno[2,3-c]pyrazole-5-carboxylic acid [1-(2-fluoro-phenyl)-1-methyl-ethyl]-amide]: the figures for the Kd in [1] (setting [13]) and in test [2] (setting [14]) were 12 ± 6 nM and 8.3 ± 1.5 nM, respectively.
As for `CN1CCC(Oc2ccc(C(=O)Nc3n[nH]c4sc(C(=O)NC(C)(C)c5ccccc5)cc34)cc2)CC1` [Compound 4, 3-[4-(1-Methyl-piperidin-4-yloxy)-benzoylamino]-1H-thieno[2,3-c]pyrazole-5-carboxylic acid (1-methyl-1-phenyl-ethyl)-amide], the equilibrium dissociation constant (Kd) in test [1] (setting [13]) came to 6 ± 3 nM; in test [2] (setting [14]) it was 2.7 ± 1 nM.
Regarding `CC(C)NCc1ccc(C(=O)Nc2n[nH]c3sc(C(=O)NC(C)(C)c4ccccc4F)cc23)cc1` [Compound 7], the Kd in [1] (setting [13]) stood at 20 ± 2 nM; in test [2] (setting [14]), 16.8 ± 3 nM.
As to `CC(C)NCc1ccc(C(=O)Nc2n[nH]c3sc(C(=O)NC(C)(C)c4ccccc4)cc23)cc1` [Compound 11, 3-[4-(Isopropylamino-methyl)benzoylamino)-1H-thieno[2,3-c]pyrazole-5-carboxylic acid (1-methyl-1-phenyl-ethyl)-amide], the Kd in test [1] (setting [13]) was determined as 12 ± 2.5 nM; in test [2] (setting [14]) it was 11 ± 2.6 nM.
